Organism: Rattus norvegicus
Test: DrugMatrix - Regimen: Daily Repeat
Type: toxicity, organism-based, Sprague-Dawley
Parameters: regimen Daily Repeat, gender Male, age 6-8 weeks
Settings: in vivo, po, route oral GAVAGE, vehicle 100 % WATER; for URIC ACID / ALANINE AMINOTRANSFERASE / ALBUMIN / ALKALINE PHOSPHATASE / ASPARTATE AMINOTRANSFERASE / BLOOD UREA NITROGEN / CARBON DIOXIDE / CHLORIDE / CHOLESTEROL / CREATININE / GLUCOSE / LACTATE DEHYDROGENASE / LIPASE / PHOSPHORUS / POTASSIUM / SODIUM / TOTAL BILIRUBIN / TOTAL PROTEIN / CREATINE PHOSPHOKINASE: tissue Plasma; for ABSOLUTE BASOPHIL / ABSOLUTE EOSINOPHIL / ABSOLUTE LYMPHOCYTE / ABSOLUTE MONOCYTE / ABSOLUTE SEGMENTED NEUTROPHIL / BASOPHIL / EOSINOPHIL / ERYTHROCYTE COUNT / HEMATOCRIT / HEMOGLOBIN / LEUKOCYTE COUNT / LYMPHOCYTE / MEAN CORPUSCULAR HEMOGLOBIN / MEAN CORPUSCULAR HEMOGLOBIN CONCENTRATION / MEAN CORPUSCULAR VOLUME / MONOCYTE / NEUTROPHIL / NUCLEATED RED BLOOD CELLS / PLATELET COUNT: tissue Blood
[1] = 25 mg/kg, 120 h, dose level Low, time 5 day
[2] = 120 mg/kg, 72 h, dose level High, time 3 day
[3] = 120 mg/kg, 120 h, dose level High, time 5 day

SMILES: c1ccc([C@H]2CN3CCSC3=N2)cc1 [LEVAMISOLE]
- URIC ACID (25 mg/kg, 72 h, dose level Low, time 3 day): 1.67 mg/dL
- ABSOLUTE BASOPHIL [1]: 0 CELLS/uL
- ABSOLUTE EOSINOPHIL [1]: 174 CELLS/uL
- ABSOLUTE LYMPHOCYTE [1]: 12224.67 CELLS/uL
- ABSOLUTE MONOCYTE [1]: 328 CELLS/uL
- ABSOLUTE SEGMENTED NEUTROPHIL [1]: 1106.67 CELLS/uL
- BASOPHIL [1]: 0%
- EOSINOPHIL [1]: 1.33%
- ERYTHROCYTE COUNT [1]: 5.32 x10E6/uL
- HEMATOCRIT [1]: 33.6%
- HEMOGLOBIN [1]: 13.4 G/DL
- LEUKOCYTE COUNT [1]: 13.83 x10E3/uL
- LYMPHOCYTE [1]: 88.33%
- MEAN CORPUSCULAR HEMOGLOBIN [1]: 25.2 pg
- MEAN CORPUSCULAR HEMOGLOBIN CONCENTRATION [1]: 39.9 G/DL
- MEAN CORPUSCULAR VOLUME [1]: 63.2 fL
- MONOCYTE [1]: 2.33%
- NEUTROPHIL [1]: 8%
- NUCLEATED RED BLOOD CELLS [1]: 0 /100WBC
- PLATELET COUNT [1]: 1156 x10E3/uL
- ALANINE AMINOTRANSFERASE [1]: 50 u/L
- ALBUMIN [1]: 4.2 G/DL
- ALKALINE PHOSPHATASE [1]: 418 u/L
- ASPARTATE AMINOTRANSFERASE [1]: 86.33 u/L
- BLOOD UREA NITROGEN [1]: 17.67 mg/dL
- CARBON DIOXIDE [1]: 27.33 mmol/L
- CHLORIDE [1]: 100.67 MEQ/L
- CHOLESTEROL [1]: 69.67 mg/dL
- CREATININE [1]: 0.19 mg/dL
- GLUCOSE [1]: 136 mg/dL
- LACTATE DEHYDROGENASE [1]: 423 u/L
- LIPASE [1]: 11 u/L
- PHOSPHORUS [1]: 11.83 mg/dL
- POTASSIUM [1]: 6.36 MEQ/L
- SODIUM [1]: 141.8 MEQ/L
- TOTAL BILIRUBIN [1]: 0.23 mg/dL
- TOTAL PROTEIN [1]: 5.77 G/DL
- URIC ACID [1]: 1.4 mg/dL
- ABSOLUTE BASOPHIL [2]: 0 CELLS/uL
- ABSOLUTE EOSINOPHIL [2]: 0 CELLS/uL
- ABSOLUTE LYMPHOCYTE [2]: 11350 CELLS/uL
- ABSOLUTE MONOCYTE [2]: 85 CELLS/uL
- ABSOLUTE SEGMENTED NEUTROPHIL [2]: 565 CELLS/uL
- BASOPHIL [2]: 0%
- EOSINOPHIL [2]: 0%
- ERYTHROCYTE COUNT [2]: 7.38 x10E6/uL
- HEMATOCRIT [2]: 45.33%
- HEMOGLOBIN [2]: 17.77 G/DL
- LEUKOCYTE COUNT [2]: 12 x10E3/uL
- LYMPHOCYTE [2]: 94%
- MEAN CORPUSCULAR HEMOGLOBIN [2]: 24.1 pg
- MEAN CORPUSCULAR HEMOGLOBIN CONCENTRATION [2]: 39.17 G/DL
- MEAN CORPUSCULAR VOLUME [2]: 61.5 fL
- MONOCYTE [2]: 1%
- NEUTROPHIL [2]: 5%
- NUCLEATED RED BLOOD CELLS [2]: 0 /100WBC
- PLATELET COUNT [2]: 1087.67 x10E3/uL
- ALANINE AMINOTRANSFERASE [2]: 57.33 u/L
- ALBUMIN [2]: 4.4 G/DL
- ALKALINE PHOSPHATASE [2]: 373.67 u/L
- ASPARTATE AMINOTRANSFERASE [2]: 80.33 u/L
- BLOOD UREA NITROGEN [2]: 17.67 mg/dL
- CARBON DIOXIDE [2]: 28.33 mmol/L
- CHLORIDE [2]: 98 MEQ/L
- CHOLESTEROL [2]: 87.33 mg/dL
- CREATINE PHOSPHOKINASE [2]: 366 u/L
- CREATININE [2]: 0.2 mg/dL
- GLUCOSE [2]: 152 mg/dL
- LACTATE DEHYDROGENASE [2]: 277.67 u/L
- LIPASE [2]: 12 u/L
- PHOSPHORUS [2]: 12.7 mg/dL
- POTASSIUM [2]: 6.52 MEQ/L
- SODIUM [2]: 140.77 MEQ/L
- TOTAL BILIRUBIN [2]: 0.13 mg/dL
- TOTAL PROTEIN [2]: 6 G/DL
- URIC ACID [2]: 2.23 mg/dL
- ABSOLUTE BASOPHIL [3]: 0 CELLS/uL
- ABSOLUTE EOSINOPHIL [3]: 0 CELLS/uL
- ABSOLUTE LYMPHOCYTE [3]: 13503 CELLS/uL
- ABSOLUTE MONOCYTE [3]: 159 CELLS/uL
- ABSOLUTE SEGMENTED NEUTROPHIL [3]: 804.67 CELLS/uL
- BASOPHIL [3]: 0%
- EOSINOPHIL [3]: 0%
- ERYTHROCYTE COUNT [3]: 5.98 x10E6/uL
- HEMATOCRIT [3]: 36.6%
- HEMOGLOBIN [3]: 14.47 G/DL
- LEUKOCYTE COUNT [3]: 14.47 x10E3/uL
- LYMPHOCYTE [3]: 93.33%
- MEAN CORPUSCULAR HEMOGLOBIN [3]: 24.23 pg
- MEAN CORPUSCULAR HEMOGLOBIN CONCENTRATION [3]: 39.53 G/DL
- MEAN CORPUSCULAR VOLUME [3]: 61.17 fL
- MONOCYTE [3]: 1%
- NEUTROPHIL [3]: 5.67%
- NUCLEATED RED BLOOD CELLS [3]: 0 /100WBC
- PLATELET COUNT [3]: 1244.33 x10E3/uL
- ALANINE AMINOTRANSFERASE [3]: 67.33 u/L
- ALBUMIN [3]: 4.1 G/DL
- ALKALINE PHOSPHATASE [3]: 355.33 u/L
- ASPARTATE AMINOTRANSFERASE [3]: 137.33 u/L
- BLOOD UREA NITROGEN [3]: 19.33 mg/dL
- CARBON DIOXIDE [3]: 20.33 mmol/L
- CHLORIDE [3]: 101 MEQ/L
- CHOLESTEROL [3]: 84.33 mg/dL
- CREATINE PHOSPHOKINASE [3]: 932 u/L
- CREATININE [3]: 0.23 mg/dL
- GLUCOSE [3]: 177.33 mg/dL
- LACTATE DEHYDROGENASE [3]: 504.67 u/L
- LIPASE [3]: 12.67 u/L
- PHOSPHORUS [3]: 13.73 mg/dL
- POTASSIUM [3]: 6.59 MEQ/L
- SODIUM [3]: 143.9 MEQ/L
- TOTAL BILIRUBIN [3]: 0.27 mg/dL
- TOTAL PROTEIN [3]: 5.67 G/DL
- URIC ACID [3]: 3.13 mg/dL
